Source: PubChem BioAssay (NCI)
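1) Cells in 96-well plates. 2) Compound, 48 h, 5 concentrations. 3) Linear interpolation between surrounding doses. 4) Unreached endpoint = highest concentration. At the TGI there is no net growth.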

Assays:
Test in all cases: NCI tumour cell line growth inhibition, 48 h
SNB-78 CNS = test system: SNB-78 CNS
HOP-18 NSCLC = test system: HOP-18 NSCLC
DMS 114 small cell lung = test system: DMS 114 small cell lung
LXFL 529 NSCLC = test system: LXFL 529 NSCLC
SN12K1 renal = test system: SN12K1 renal
XF 498 CNS = test system: XF 498 CNS
P388 leukemia = test system: P388 leukemia
P388/ADR leukemia = test system: P388/ADR leukemia
RXF-631 renal = test system: RXF-631 renal

Row | SMILES | TGI (SNB-78 CNS) | TGI (HOP-18 NSCLC) | TGI (DMS 114 small cell lung) | TGI (LXFL 529 NSCLC) | TGI (SN12K1 renal) | TGI (XF 498 CNS) | TGI (P388 leukemia) | TGI (P388/ADR leukemia) | TGI (RXF-631 renal)
1 | CC1=NS(=O)(=O)c2ccccc2N1 | > 100 µM | > 100 µM | > 0.1 mM | > 100 µM |  |  |  |  | 
2 | Cc1cn(C2CC(O)C(CO)O2)c(=O)[nH]c1=O (centres undefined) | > 5000 µM | > 5000 µM | > 4.67 mM |  | 4.53 mM | 366 µM | 1.97 mM | 2.65 mM | 
3 | CSc1nsc(-c2ccccc2)[s+]1 | > 100 µM | > 100 µM |  |  |  |  |  |  | > 100 µM
